{"source": "patent US6063803A", "about": "“Octahydropyrrolo-[3,4-c]carbazoles useful as analgesic agents” (Ortho-McNeil Pharmaceutical, Inc., priority 1999, dated 2000)", "key": {"[1]": {"assay": "rat air-induced writhing (abdominal constriction) assay", "format": "in vivo, rats", "conditions": "rat air-induced writhing", "description": "The analgesic activity was determined in another model using rats as the test animal. The procedure was essentially described by P. VonVoightlander et al. in Air-induced Writhing, a Rapid Broad Spectrum Assay for Analgesics, Drug Dev. Res., 2, 577-81, (1982). The test compound or vehicle was administered p.o. (2 mL/kg) and after 30 min, the animals received an i.p. injection of air (10 mL). The animals were placed into individual observation chambers and observed for 30 min for the occurrence of abdominal constriction as defined above. The percent inhibition of this response was calculated as follows. The % inhibition of response, i.e., % analgesia is equal to the number nonresponding drug-treated animals×100 divided by the number of animals in the group. […] This effect lasted for 2-3 hours."}, "α2-adrenergic receptor": {"molecular_target": "T1, α2-adrenergic receptor (Rattus norvegicus, UniProt P22909)", "T1 construct": "aliquots of the synaptic membrane fraction, the ligand; from tissue; host or cells: cerebral cortex synaptic membranes of male Wistar rats", "T1 sequence (P22909 1-465)": "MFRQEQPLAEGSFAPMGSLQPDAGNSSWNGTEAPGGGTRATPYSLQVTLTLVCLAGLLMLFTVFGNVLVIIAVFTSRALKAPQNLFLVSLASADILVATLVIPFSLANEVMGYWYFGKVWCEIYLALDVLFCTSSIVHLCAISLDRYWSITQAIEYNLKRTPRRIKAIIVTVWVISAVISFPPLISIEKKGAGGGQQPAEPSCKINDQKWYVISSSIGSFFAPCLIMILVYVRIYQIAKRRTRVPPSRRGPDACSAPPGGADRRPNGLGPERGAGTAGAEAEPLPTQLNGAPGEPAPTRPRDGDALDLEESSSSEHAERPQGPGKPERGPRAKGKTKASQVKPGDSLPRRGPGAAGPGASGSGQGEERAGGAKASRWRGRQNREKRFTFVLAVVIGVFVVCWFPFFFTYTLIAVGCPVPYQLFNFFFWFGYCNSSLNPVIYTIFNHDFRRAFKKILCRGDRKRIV", "assay": "α2-adrenergic receptor binding (3H-para-aminoclonidine, rat cortex synaptic membranes)", "set-up": "species or system rat (Wistar)", "conditions": "25° C., 20 min", "description": "The α2 -adrenergic activity of the compounds was determined by the following in vitro assay. Male, Wistar rats (150-250 g, VAF, Charles River, Kingston, N.Y.) were sacrificed by cervical dislocation and their brains removed and immediately placed in ice cold HEPES buffered sucrose. The cortex was dissected out and homogenized in 20 volumes of HEPES sucrose in a Teflon®-glass homogenizer. The homogenate was centrifuged at 1000×g for 10 min, and the resulting supernatant centrifuged at 42,000×g for 10 min. The resulting pellet was resuspended in 30 volumes of 3 mM potassium phosphate buffer, pH 7.5, preincubated at 25° C. for 30 min and recentrifuged. The resulting pellet was resuspended as described above and used for the receptor binding assay. Incubation was performed in test tubes containing phosphate buffer, 2.5 mM MgCl2, aliquots of the synaptic membrane fraction, the ligand ^3 H-para-aminoclonidine and test drug at 25° C. for 20 min. The incubation was terminated by filtration of the tube contents through glass fiber filter sheets. The sheets were washed with 10 mM HEPES buffer and the adhering radioactivity was quantified by liquid scintillation spectrometry.\nDose-response data are analyzed with LIGAND, a nonlinear curve fitting program designed specifically for the analysis of ligand binding data. […]"}}}
{"smiles": "CN1CC2CCc3[nH]c4ccccc4c3C2C1", "note": "(single isomer, unassigned) [Compound 58]", "values": [{"measurement": "ED50", "setting": "[1]; po, p.o., read-out: ED50", "result": 23.1, "unit": "mg/kg"}, {"measurement": "analgesic effect observed, time after oral dosing", "setting": "[1]; oral dosing", "result": 30, "unit": "min"}, {"measurement": "duration of analgesic effect", "setting": "[1]; oral dosing", "result": "2 to 3", "unit": "h"}, {"measurement": "Ki", "setting": "α2-adrenergic receptor", "result": 9.4, "unit": "nM"}]}
